The source of these data is publication PMC10145360, “Antiplatelet Aggregation Properties of Cirsilineol: A Novel Inhibitor of Blood Coagulation Factor Xa” (Pharmaceuticals, 2023).

One assay relates to platelets. In words: P-selectin and PAC-1 expression, flow cytometry. In kind it is cell-based, human. Conditions: platelets activated by ADP or U46619; CSL 10 or 20 μM. As to the method: Figure 7 Effects of CSL on the expression of P-selectin and PAC-1 and the production of NO and ET-1. (A) Rinsed platelets were incubated with DMSO or CSL (10 or 20 μM) for 3 min at 37 °C, and stimulation of ADP ((A,C) 10 μM) or U46619 ((B,D) 6 μM) was given for 6 min. The expressions of P-selectin and PAC-1 (A,B) and the production of NO and ET-1 (C,D) were measured as described in the Methods section. Data are shown as mean values ± SD of five independent experiments. * p < 0.05 vs. (A,C) ADP or (B,D) U46619 alone. D = 0.2% DMSO, used as the vehicle control.
PAC-1 and P-selectin expression levels were assessed by modifying accepted techniques. Briefly, 20 μL of DMSO or CSL (10 to 20 μM) were incubated with 0.5 mL of cleaned platelets (2 × 10^8 platelets/mL) for 3 min. The platelet suspension was refrigerated at 4 °C after stimulation with ADP (10 μM) or U46619 (6 μM) for 6 min at 37 °C. Subsequently, 50 μL of the sample was mixed with activation-specific anti-PAC-1 and anti-CD61-PE in saturated concentrations, and the mixture was then incubated for 25 min in the dark to determine the expression of PAC-1. […] Finally, 5000 events were evaluated for each sample. The mean fluorescence intensities from each channel were expressed using BD Accuri C6 software (BD Biosciences, San Diego, CA, USA). […]

Assay [1] deals with FX activation by FVIIa on HUVECs. In words: Production of FXa on the surface of TNF-α-stimulated HUVECs. In kind it is cell-based, human. The settings on record: pre-incubation 10 min. Here is the method: Figure 5 Effects of CSL on the catalytic activity and production of FXa. […] Plots show the average values of five independent measurements. (B) HUVECs pre-incubated with the indicated concentrations of CSL for 10 min were stimulated with TNF-α (10 ng/mL) for 6 h and incubated with FX (175 nM) and FVIIa (10 nM) with/without anti-tissue factor antibody (25 µg/mL). The production of FXa was characterized as described in the Methods section. (C) PRP was preincubated for 5 min with different concentrations of CSL, Riva, or the vehicle. Platelet aggregation was initiated with FXa (52 µg/mL), and the platelet aggregation was recorded using an aggregometer. Data are shown as mean values ± SD of five independent experiments. * p < 0.05 vs. TNF-α alone (B) or FXa (C). D = 0.2% DMSO, used as the vehicle control.
Confluent HUVEC monolayers developed on 96-well culture plates that were stimulated with TNF-α (10 ng/mL) for 6 h after exposure to the relevant CSL concentration for 10 min. […] The reaction was stopped by adding buffer A supplemented with 10 mM EDTA, and the amount of FXa produced was determined by adding S-2765. Spectrophotometric monitoring of the absorbance over a 2 min period was performed at 405 nm. […]

In the case of `COc1cc(-c2cc(=O)c3c(O)c(OC)c(OC)cc3o2)ccc1O` [CSL, 4,5-dihydroxy-3,6,7-trimethoxyflavone], in the assay on platelets, the “expression of P-selectin and PAC-1” value is given as “reduced the expression”. In addition, the “FX activation by FVIIa” value in assay [1] was “inhibited FX activation in a concentration-dependent manner”.
